Laboratory results taken from ChEMBL document CHEMBL5370623, “Discovery of Quinazoline-2,4(1H,3H)-dione Derivatives Containing a Piperizinone Moiety as Potent PARP-1/2 Inhibitors─Design, Synthesis, In Vivo Antitumor Activity, and X-ray Crystal Structure Analysis” (J Med Chem, 2023).
Blank lines part the entries; values can stand above or below the compound they belong to.

Key:
[1] = molecular target: T1, Poly [ADP-ribose] polymerase 1 (Homo sapiens, UniProt P09874)
Description: Inhibition of PARP1 (unknown origin)

[2] = Tmax in BALB/c mouse at 25 mg/kg, po measured upto 24 hrs by LC-MS/MS analysis; format: ADME, organism-based; conditions: in vivo
[3] = molecular target: T1, Poly [ADP-ribose] polymerase 1; assay: Inhibition of human recombinant PARP1 expressed in Escherichia coli BL21(DE3) incubated for 1 hr by ELISA assay
[4] = molecular target: T2, Poly [ADP-ribose] polymerase 2 (Homo sapiens, UniProt Q9UGN5); assay: Inhibition of human recombinant PARP2 expressed in Escherichia coli BL21(DE3) incubated for 1 hr by ELISA assay
T2 sequence (Q9UGN5 whole entry): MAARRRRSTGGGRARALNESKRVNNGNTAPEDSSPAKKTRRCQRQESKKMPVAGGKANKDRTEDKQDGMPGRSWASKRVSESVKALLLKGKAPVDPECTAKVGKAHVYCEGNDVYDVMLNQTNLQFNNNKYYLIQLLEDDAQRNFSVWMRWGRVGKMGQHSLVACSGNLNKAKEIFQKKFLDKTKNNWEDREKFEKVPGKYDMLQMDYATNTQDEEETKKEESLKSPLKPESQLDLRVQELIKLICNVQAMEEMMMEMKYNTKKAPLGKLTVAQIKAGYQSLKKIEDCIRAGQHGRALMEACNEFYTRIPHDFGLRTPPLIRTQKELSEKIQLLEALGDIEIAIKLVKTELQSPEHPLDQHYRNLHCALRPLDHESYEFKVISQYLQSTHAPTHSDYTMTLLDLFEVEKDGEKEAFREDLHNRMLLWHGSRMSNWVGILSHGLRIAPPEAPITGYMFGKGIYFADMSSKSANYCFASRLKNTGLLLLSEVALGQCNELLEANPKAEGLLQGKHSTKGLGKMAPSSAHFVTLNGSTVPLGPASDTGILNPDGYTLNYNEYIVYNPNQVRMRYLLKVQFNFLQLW

[5] = Aqueous solubility of the compound; format: physicochemical
[6] = molecular target: T1, Poly [ADP-ribose] polymerase 1; assay: Inhibition of human recombinant N-terminal GST-tagged PARP1 (2 to 1014(end) residues) expressed in Sf9 cells
[7] = molecular target: Protein mono-ADP-ribosyltransferase PARP3 (Homo sapiens, UniProt Q9Y6F1); assay: Inhibition of human recombinant N-terminal GST-tagged PARP3 (2 to 540(end) residues) expressed in Sf9 cells
Sequence of Protein mono-ADP-ribosyltransferase PARP3 (Q9Y6F1 whole entry): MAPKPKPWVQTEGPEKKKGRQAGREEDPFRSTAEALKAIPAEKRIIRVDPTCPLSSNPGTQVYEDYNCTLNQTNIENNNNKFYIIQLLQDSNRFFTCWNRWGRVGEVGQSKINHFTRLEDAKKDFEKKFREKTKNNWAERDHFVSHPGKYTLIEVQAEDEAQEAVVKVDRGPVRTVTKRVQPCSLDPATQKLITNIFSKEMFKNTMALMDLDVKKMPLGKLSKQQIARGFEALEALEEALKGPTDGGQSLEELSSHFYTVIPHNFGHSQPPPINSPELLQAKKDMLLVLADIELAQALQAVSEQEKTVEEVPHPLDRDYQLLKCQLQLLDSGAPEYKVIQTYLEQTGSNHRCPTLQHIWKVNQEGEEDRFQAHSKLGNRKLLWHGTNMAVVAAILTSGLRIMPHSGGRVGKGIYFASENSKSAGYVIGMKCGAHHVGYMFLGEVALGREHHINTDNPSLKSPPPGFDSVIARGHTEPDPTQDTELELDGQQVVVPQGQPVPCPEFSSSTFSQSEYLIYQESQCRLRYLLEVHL

[8] = molecular target: Protein mono-ADP-ribosyltransferase PARP6 (Homo sapiens, UniProt Q2NL67); assay: Inhibition of human recombinant N-terminal GST-tagged PARP6 (1 to 630(end) residues) expressed in Sf9 cells
Sequence of Protein mono-ADP-ribosyltransferase PARP6 (Q2NL67 whole entry): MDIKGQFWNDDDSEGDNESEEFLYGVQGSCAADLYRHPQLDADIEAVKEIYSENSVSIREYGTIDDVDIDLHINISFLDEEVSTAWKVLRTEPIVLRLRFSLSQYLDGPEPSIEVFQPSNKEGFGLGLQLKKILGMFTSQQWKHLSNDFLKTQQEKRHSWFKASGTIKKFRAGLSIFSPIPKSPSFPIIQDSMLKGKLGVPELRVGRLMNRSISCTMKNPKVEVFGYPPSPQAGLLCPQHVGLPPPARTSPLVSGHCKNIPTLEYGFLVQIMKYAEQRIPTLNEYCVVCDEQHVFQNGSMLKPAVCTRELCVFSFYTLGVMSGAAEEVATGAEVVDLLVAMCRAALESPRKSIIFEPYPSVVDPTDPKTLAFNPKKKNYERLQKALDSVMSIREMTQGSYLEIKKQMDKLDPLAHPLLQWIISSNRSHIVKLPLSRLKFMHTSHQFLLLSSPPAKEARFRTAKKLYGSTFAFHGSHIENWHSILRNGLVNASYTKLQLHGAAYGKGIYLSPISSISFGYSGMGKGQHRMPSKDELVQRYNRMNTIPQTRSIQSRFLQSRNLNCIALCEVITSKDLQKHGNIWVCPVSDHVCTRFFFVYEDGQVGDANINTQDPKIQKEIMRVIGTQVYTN

[9] = molecular target: Protein mono-ADP-ribosyltransferase TIPARP (Homo sapiens, UniProt Q7Z3E1); assay: Inhibition of human recombinant N-terminal FLAG-tagged PARP7 (400 to 657(end) residues) expressed in Sf9 cells
Sequence of Protein mono-ADP-ribosyltransferase TIPARP (Q7Z3E1 whole entry): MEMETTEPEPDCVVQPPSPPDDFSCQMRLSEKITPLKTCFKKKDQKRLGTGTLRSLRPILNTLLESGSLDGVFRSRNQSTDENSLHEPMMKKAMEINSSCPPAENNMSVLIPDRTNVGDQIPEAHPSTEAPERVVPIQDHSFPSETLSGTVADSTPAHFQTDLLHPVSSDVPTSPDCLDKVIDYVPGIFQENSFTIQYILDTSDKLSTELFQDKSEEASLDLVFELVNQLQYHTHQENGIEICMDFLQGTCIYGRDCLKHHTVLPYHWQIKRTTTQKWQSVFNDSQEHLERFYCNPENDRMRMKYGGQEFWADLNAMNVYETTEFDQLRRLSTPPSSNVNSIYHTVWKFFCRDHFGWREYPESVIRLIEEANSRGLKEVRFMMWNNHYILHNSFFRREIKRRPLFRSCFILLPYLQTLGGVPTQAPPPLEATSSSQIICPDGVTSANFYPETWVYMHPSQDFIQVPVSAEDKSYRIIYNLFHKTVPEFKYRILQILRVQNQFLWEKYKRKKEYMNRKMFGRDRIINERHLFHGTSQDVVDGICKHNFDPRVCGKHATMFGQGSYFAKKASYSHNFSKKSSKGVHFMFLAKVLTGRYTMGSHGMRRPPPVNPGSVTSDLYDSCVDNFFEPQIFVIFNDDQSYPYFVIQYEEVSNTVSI

[10] = molecular target: Protein mono-ADP-ribosyltransferase PARP8 (Homo sapiens, UniProt Q8N3A8); assay: Inhibition of PARP8 (unknown origin)
Sequence of Protein mono-ADP-ribosyltransferase PARP8 (Q8N3A8 whole entry): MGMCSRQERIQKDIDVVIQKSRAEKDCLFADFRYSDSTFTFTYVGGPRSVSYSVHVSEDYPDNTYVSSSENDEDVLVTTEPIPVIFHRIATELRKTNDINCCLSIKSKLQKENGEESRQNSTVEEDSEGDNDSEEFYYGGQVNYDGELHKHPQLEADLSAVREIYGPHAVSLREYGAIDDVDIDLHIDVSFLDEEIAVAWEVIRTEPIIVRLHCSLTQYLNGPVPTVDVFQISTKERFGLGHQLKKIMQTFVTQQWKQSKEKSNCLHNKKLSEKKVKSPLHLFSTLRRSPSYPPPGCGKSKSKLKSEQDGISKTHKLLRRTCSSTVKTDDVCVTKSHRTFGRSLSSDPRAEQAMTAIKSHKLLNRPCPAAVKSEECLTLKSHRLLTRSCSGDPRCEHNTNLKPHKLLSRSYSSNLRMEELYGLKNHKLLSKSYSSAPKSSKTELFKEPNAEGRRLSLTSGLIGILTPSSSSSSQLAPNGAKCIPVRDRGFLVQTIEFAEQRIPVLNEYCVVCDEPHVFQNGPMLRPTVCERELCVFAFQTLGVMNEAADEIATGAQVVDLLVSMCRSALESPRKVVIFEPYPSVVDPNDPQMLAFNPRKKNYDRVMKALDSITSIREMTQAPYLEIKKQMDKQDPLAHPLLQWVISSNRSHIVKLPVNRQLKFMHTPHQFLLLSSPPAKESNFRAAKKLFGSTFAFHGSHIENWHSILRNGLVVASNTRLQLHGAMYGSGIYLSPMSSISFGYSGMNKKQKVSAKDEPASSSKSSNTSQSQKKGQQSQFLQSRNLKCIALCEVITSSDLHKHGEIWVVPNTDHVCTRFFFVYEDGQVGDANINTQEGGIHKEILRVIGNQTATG

[11] = Binding affinity to cat PARP1 assessed as dissociation constant by SPR assay; design: species or system Felis catus
[12] = Binding affinity to cat PARP2 assessed as dissociation constant by SPR assay; design: species or system Felis catus
MDA-MB-436 [13] = assay: Antitumor activity against BRCAl-deficient human MDA-MB-436 cells xenografted in Balb/c athymic nude mouse assessed as tumor growth inhibition at 1.1 mg/kg, po qd measured after 23 days; format: functional; conditions: MDA-MB-436, 552 h, time 23 day, read-out: TGI
MDA-MB-436 [14] = assay: Antitumor activity against BRCAl-deficient human MDA-MB-436 cells xenografted in Balb/c athymic nude mouse assessed as tumor growth inhibition at 3.3 mg/kg, po qd measured after 23 days; format: functional; conditions: MDA-MB-436, 552 h, time 23 day, read-out: TGI
MDA-MB-436 [15] = assay: Antitumor activity against BRCAl-deficient human MDA-MB-436 cells xenografted in Balb/c athymic nude mouse assessed as tumor growth inhibition at 10 mg/kg, po qd measured after 23 days; format: functional; conditions: MDA-MB-436, 552 h, time 23 day, read-out: TGI
[16] = Toxicity in Balb/c athymic nude mouse xenografted with BRCAl-deficient human MDA-MB-436 cells assessed as change in body weight at 1.1 to 10 mg/kg, po qd measured after 23 days; format: organism-based; conditions: in vivo, 552 h, dose 1.1-10 mg/kg, time 23 day
DU-145 [17] = assay: Antitumor activity against PTEN-deficient human DU-145 cells xenografted in Balb/c athymic nude mouse assessed as tumor growth inhibition at 5 mg/kg, po qd measured after 14 days; format: functional; conditions: DU-145, 336 h, time 14 day, read-out: TGI
DU-145 [18] = assay: Antitumor activity against PTEN-deficient human DU-145 cells xenografted in Balb/c athymic nude mouse assessed as tumor growth inhibition at 10 mg/kg, po qd measured after 14 days; format: functional; conditions: DU-145, 336 h, time 14 day, read-out: TGI
DU-145 [19] = assay: Antitumor activity against PTEN-deficient human DU-145 cells xenografted in Balb/c athymic nude mouse assessed as tumor growth inhibition at 20 mg/kg, po qd measured after 14 days; format: functional; conditions: DU-145, 336 h, time 14 day, read-out: TGI
[20] = Toxicity in Balb/c athymic nude mouse xenografted with PTEN-deficient human DU145 cells assessed as change in body weight at 5 to 20 mg/kg, po qd measured after 14 days; format: organism-based, DU-145; conditions: in vivo, 336 h, dose 5-20 mg/kg, time 14 day
MC-38 = assay: Antitumor activity against mouse MC38 cells implanted in C57BL/6 mouse assessed as tumor growth inhibition at 10 mg/kg, po qd measured after 17 days; format: functional; conditions: MC-38, 408 h, time 17 day, read-out: TGI
[21] = Toxicity in C57BL/6 mouse implanted with mouse MC38 cells assessed as change in body weight at 10 mg/kg, po qd measured after 17 days; format: organism-based, MC-38; conditions: in vivo, 408 h, time 17 day
[22] = Half life in BALB/c mouse at 25 mg/kg, po measured upto 24 hrs by LC-MS/MS analysis; format: ADME, organism-based; conditions: in vivo
[23] = Half life in BALB/c mouse at 2.5 mg/kg, iv measured upto 24 hrs by LC-MS/MS analysis; format: ADME, organism-based; conditions: in vivo
[24] = Tmax in BALB/c mouse at 2.5 mg/kg, iv measured upto 24 hrs by LC-MS/MS analysis; format: ADME, organism-based; conditions: in vivo
[25] = Cmax in BALB/c mouse at 25 mg/kg, po measured upto 24 hrs by LC-MS/MS analysis; format: ADME, organism-based; design: time < 24 hrs, dose 25 mg/kg, route po; conditions: in vivo
[26] = Cmax in BALB/c mouse at 2.5 mg/kg, iv measured upto 24 hrs by LC-MS/MS analysis; format: ADME, organism-based; design: time < 24 hrs, dose 2.5 mg/kg, route iv; conditions: in vivo
[27] = AUC (0 to t) in BALB/c mouse at 25 mg/kg, po measured upto 24 hrs by LC-MS/MS analysis; format: ADME, organism-based; design: time < 24 hrs, dose 25 mg/kg, route po; conditions: in vivo
[28] = AUC (0 to t) in BALB/c mouse at 2.5 mg/kg, iv measured upto 24 hrs by LC-MS/MS analysis; format: ADME, organism-based; design: time < 24 hrs, dose 2.5 mg/kg, route iv; conditions: in vivo
[29] = AUC (0 to infinity) in BALB/c mouse at 25 mg/kg, po measured upto 24 hrs by LC-MS/MS analysis; format: ADME, organism-based; design: dose 25 mg/kg, time < 24 hrs, route po; conditions: in vivo
[30] = AUC (0 to infinity) in BALB/c mouse at 2.5 mg/kg, iv measured upto 24 hrs by LC-MS/MS analysis; format: ADME, organism-based; design: dose 2.5 mg/kg, time < 24 hrs, route iv; conditions: in vivo
[31] = MRT (0 to t) in BALB/c mouse at 25 mg/kg, po measured upto 24 hrs by LC-MS/MS analysis; format: ADME, organism-based; conditions: in vivo
[32] = MRT (0 to t) in BALB/c mouse at 2.5 mg/kg, iv measured upto 24 hrs by LC-MS/MS analysis; format: ADME, organism-based; conditions: in vivo
[33] = MRT (0 to infinity) in BALB/c mouse at 25 mg/kg, po measured upto 24 hrs by LC-MS/MS analysis; format: ADME, organism-based; conditions: in vivo
[34] = MRT (0 to infinity) in BALB/c mouse at 2.5 mg/kg, iv measured upto 24 hrs by LC-MS/MS analysis; format: ADME, organism-based; conditions: in vivo
[35] = Oral bioavailability in BALB/c mouse at 25 mg/kg measured upto 24 hrs by LC-MS/MS analysis; format: ADME, organism-based; conditions: in vivo
[36] = molecular target: T2, Poly [ADP-ribose] polymerase 2
Description: Inhibition of human recombinant N-terminal GST-tagged PARP2 (2 to 583(end) residues) expressed in Sf9 cells

T1 sequence (P09874 whole entry): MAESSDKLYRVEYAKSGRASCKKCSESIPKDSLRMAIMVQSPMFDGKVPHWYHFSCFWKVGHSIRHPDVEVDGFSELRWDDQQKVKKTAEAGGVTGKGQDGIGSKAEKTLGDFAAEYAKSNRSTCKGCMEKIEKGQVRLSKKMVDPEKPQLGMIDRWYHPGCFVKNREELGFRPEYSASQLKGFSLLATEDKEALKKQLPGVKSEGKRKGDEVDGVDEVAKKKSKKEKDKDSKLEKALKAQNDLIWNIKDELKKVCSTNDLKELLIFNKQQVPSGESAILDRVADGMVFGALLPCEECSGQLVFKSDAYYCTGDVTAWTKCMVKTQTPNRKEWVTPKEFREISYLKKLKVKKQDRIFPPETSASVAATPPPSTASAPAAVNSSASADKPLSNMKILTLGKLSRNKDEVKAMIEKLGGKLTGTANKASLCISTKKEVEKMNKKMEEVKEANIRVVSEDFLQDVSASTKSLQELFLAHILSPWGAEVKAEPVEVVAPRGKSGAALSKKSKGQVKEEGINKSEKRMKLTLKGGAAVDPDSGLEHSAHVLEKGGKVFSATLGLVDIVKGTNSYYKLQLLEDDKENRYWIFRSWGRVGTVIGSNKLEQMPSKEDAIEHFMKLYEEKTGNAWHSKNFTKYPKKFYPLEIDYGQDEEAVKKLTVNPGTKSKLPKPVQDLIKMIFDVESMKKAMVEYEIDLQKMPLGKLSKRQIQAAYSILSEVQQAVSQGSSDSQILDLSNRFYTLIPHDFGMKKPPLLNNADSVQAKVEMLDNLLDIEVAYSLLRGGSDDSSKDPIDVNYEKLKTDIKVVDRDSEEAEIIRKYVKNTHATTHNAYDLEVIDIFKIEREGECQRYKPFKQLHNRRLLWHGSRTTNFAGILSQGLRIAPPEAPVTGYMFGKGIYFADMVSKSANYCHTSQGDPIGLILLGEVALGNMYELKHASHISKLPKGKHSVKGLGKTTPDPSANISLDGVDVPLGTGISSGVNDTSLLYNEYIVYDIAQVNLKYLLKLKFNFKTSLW

IC50 [1]: < 1 pM
SMILES: O=C(c1cc(Cc2n[nH]c(=O)c3ccccc23)ccc1F)N1CCn2c(nnc2-c2ccc(Br)o2)C1

Tmax [2]: 4.8 min | IC50 [3]: 0.94 nM | IC50 [4]: 0.87 nM | solubility [5]: 223 µg/mL | IC50 [6]: 0.94 nM | IC50 [7]: 51 nM | IC50 [8]: ~280 nM | IC50 [9]: 0.21 nM | IC50 [10]: 13 nM | Kd [11]: 0.83 nM | Kd [12]: 0.75 nM | half-life [22]: 16.2 min | half-life [23]: 7.8 min | Tmax [24]: 1.8 min | Cmax [25]: 1540 ng/mL | Cmax [26]: 2430 ng/mL | AUC(0-t) at 24 h [27]: 612 ng·h/mL | AUC(0-t) at 24 h [28]: 417 ng·h/mL | AUC(0-inf) [29]: 617 ng·h/mL | AUC(0-inf) [30]: 419 ng·h/mL | MRT last at 24 h [31]: 18.6 min | MRT last at 24 h [32]: 7.8 min | MRT inf [33]: 19.2 min | MRT inf [34]: 7.8 min | bioavailability [35]: 14.7% | IC50 [36]: 0.87 nM
SMILES: CCC(CC)N1CCN(C(=O)c2cc(Cn3c(=O)[n-]c(=O)c4ccccc43)ccc2F)CC1=O.[Na+]
inhibition in vivo at 1.1 mg/kg (MDA-MB-436 [13]): 54.6% | inhibition in vivo at 3.3 mg/kg (MDA-MB-436 [14]): 84.9% | inhibition in vivo at 10 mg/kg (MDA-MB-436 [15]): 94.3% | Activity [16]: Non-Toxic | inhibition in vivo at 5 mg/kg (DU-145 [17]): 69.2% | inhibition in vivo at 10 mg/kg (DU-145 [18]): 87% | inhibition in vivo at 20 mg/kg (DU-145 [19]): 91.2% | Activity [20]: Non-Toxic | inhibition in vivo at 10 mg/kg (MC-38): 57.3% | Activity [21]: Non-Toxic
